US20240376099A1, “COMPOUNDS AND COMPOSITIONS AS INHIBITORS OF ENDOSOMAL TOLL-LIKE RECEPTORS” (Novartis AG, priority 2016, published 2024)

Each compound was assayed against T1, TLR8 (Homo sapiens, UniProt Q9NR97) (assay: huPBMC TLR8 Antagonist IL-6 TR-FRET Assay). Settings: human PBMCs stimulated with ssRNA40 1 μg/ml (DOTAP), 14-16 hrs; IL-6 TR-FRET read-out.
T1 sequence (Q9NR97 27-1041): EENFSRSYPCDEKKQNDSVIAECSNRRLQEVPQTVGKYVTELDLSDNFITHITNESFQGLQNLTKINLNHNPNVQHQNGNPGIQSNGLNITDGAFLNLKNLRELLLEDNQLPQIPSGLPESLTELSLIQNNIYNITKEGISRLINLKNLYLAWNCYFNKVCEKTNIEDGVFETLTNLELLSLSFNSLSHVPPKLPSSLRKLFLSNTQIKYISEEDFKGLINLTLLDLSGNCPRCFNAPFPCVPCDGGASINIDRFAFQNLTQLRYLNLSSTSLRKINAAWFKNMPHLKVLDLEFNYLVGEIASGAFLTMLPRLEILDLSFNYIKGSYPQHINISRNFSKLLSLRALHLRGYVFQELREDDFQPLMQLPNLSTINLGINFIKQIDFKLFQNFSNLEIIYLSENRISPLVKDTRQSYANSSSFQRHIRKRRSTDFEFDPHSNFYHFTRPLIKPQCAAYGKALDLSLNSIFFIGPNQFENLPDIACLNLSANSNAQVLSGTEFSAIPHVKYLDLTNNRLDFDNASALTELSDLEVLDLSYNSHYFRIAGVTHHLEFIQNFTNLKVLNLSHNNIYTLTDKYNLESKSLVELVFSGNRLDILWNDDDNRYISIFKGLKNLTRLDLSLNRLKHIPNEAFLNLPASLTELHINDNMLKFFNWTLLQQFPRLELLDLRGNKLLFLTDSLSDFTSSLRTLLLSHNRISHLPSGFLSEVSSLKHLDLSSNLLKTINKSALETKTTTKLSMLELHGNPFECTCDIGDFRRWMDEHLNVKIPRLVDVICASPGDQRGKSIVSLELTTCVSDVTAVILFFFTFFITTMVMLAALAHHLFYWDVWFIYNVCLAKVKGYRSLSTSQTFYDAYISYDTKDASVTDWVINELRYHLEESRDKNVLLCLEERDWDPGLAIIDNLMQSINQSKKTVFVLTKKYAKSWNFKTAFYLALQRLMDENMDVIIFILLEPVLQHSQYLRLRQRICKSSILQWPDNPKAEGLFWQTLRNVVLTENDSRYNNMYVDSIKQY
Format: cell-based
Parameters: Fresh blood was collected from normal human donors; endogenous in cells; host or cells: human PBMCs from fresh donor blood
Protocol: Compounds were generally serially diluted (1/3) in DMSO and plated on sterile 384 well tissue culture plates and stored until ready for use. Each ten-point dilution was typically plated in triplicate in parallel rows.
Fresh blood was collected from normal human donors underwritten informed consent in heparinized syringes on the morning of the assay. The blood was diluted in RPMI-1640 medium and the white blood cells were separated from red blood cells by centrifugation (800 g 15′ 0 acceleration, 0 brake) on a Ficoll cushion. Peripheral blood mononuclear cells (PBMCs) were separated from platelets by a series of low-speed centrifugations (1000RPM 10′) in PBS+5% HI—FBS and 1 mM EDTA. Purified PBMCs were re-suspended in assay medium (RPMI-1640 w Glutamax (Invitrogen) supplemented with 5% HI—FBS, 10 mM HEPES, 50 uM β-mercaptoethanol, and 100 mG/L penicillin/streptomycin cocktail). Viable PBMCs were counted on a hemacytometer and kept on ice until ready for plating.
A 4× concentration (4 ug/ml or 40 ug/ml for TLR8 or TLR7 assays, respectively) of the TLR7/8 agonist ssRNA40 (IDT) was complexed with 10% DOTAP (Roche) in assay medium for 30 min prior to addition to the PBMC suspension (5 million cells/ml). After addition, the final concentration of ssRNA40 in the TLR7/8 stimulated PBMC suspension was 1 μg/ml for TLR8 assay, and 10 μg/mL for the TLR7 assay. The final DOTAP concentration was 2.5%. Diluted PBMCs (5 million cells/ml) were treated with 4×TLR9 agonist ODN2216 (Invivogen). Final concentration of ODN2216 in TLR9 stimulated PBMC suspension was 0.3 μM.
Agonist stimulated PBMCs were plated on the compound treated 384 well plates at 150,000 cells/well. Un-stimulated PBMCs were plated as controls on each plate. Plating volume was 40 μL per well. DMSO concentration in each well was 0.25%.
A separate plate, without compounds, with titrations of ssRNA40 and ODN2216 was included in every assay to measure agonist response of each donor's PBMC prep. Assay plates were placed in a tissue culture incubator (37° C., 5% CO2) for 14-16 hrs. After this incubation, the plates were centrifuged and stored at −20° C. until they were assayed.
IL-6 TR-FRET Assay for TLR8 activity: • 1) Cisbio Human IL-6 kit, 20,000 tests (62TNFPEC), and GNF High-Base TC 384 well plates (cat #789163G) were used; • 2) the Anti-TIL-6 Cryptate conjugate and the Anti-IL-6 XL665 conjugate were diluted 1:20 in Reconstitution Buffer; • 3) a 1:1 mixture of 3 μl/well Anti-IL-6 Cryptate conjugate and 3 μl/well Anti-IL-6 XL665 conjugate was prepared; • 4) 6 μl/well HTRF dilution mastermix was added to 6 μl of transferred supernatant samples in proxiplates; • 5) The plates were incubated for 3 hrs at rt in the dark; and • 6) the levels of IL-6 production was measured using an Envision plate reader (665 nm (emmission)/590 nm (excitation)) with HTRF settings and ratiometric read-out: (XL665 emission/Eu Cryptate emission)×10,000. IFNα2b AlphaLISA Assay for TLR7 or TLR9 activity After thawing the assay plates, 6 μL of supernatant samples were transferred to a low-volume AlphaPlate 384SW (Perkin-Elmer). The concentration of IFNα in supernatants was measured using the IFNα2b AlphaLISA Assay (Perkin-Elmer: AL297F). 3 μL of IFNα acceptor beads/biotinylated antibody solution was added first, using laboratory automation. After an hour incubation, […] of streptavidin […] bead solution was added. The plates containing this mixture were incubated in the dark for an hour and read on an appropriate plate reader at reading parameters set by the manufacturer. (Envision, EnSpire: Perkin-Elmer).

| Structure (SMILES) | IC50 [nM] |
| --- | --- |
| Cc1nc(N2CCc3c(c(C)nn3CC34CCC(N)(CC3)CC4)C2)c2cc[nH]c2n1 [Compound No. 4, 4-((3-methyl-5-(2-methyl-7H-pyrrolo[2,3-d]pyrimidin-4-yl)-4,5,6,7-tetrahydro-1H-pyrazolo[4,3-c]pyridin-1-yl)methyl)bicyclo[2.2.2]octan-1-amine] | 511 |
| Cc1cc(N2CCc3c(c(C)nn3CC34CCC(NC(=O)CN(C)C)(CC3)CC4)C2)c2cnn(C)c2n1 [Compound No. 7, N-(4-((5-(1,6-dimethyl-1H-pyrazolo[3,4-b]pyridin-4-yl)-3-methyl-4,5,6,7-tetrahydro-1H-pyrazolo[4,3-c]pyridin-1-yl)methyl)bicyclo[2.2.2]octan-1-yl)-2-(dimethylamino)acetamide] | 61 |
| COCCN(CCOC)C12CCC(Cn3nc(C)c4c3CCN(c3cc(C)nc5c3cnn5C)C4)(CC1)CC2 [Compound No. 70, 4-((5-(1,6-dimethyl-1H-pyrazolo[3,4-b]pyridin-4-yl)-3-methyl-4,5,6,7-tetrahydro-1H-pyrazolo[4,3-c]pyridin-1-yl)methyl)-N,N-bis(2-methoxyethyl)bicyclo[2.2.2]octan-1-amine] | 379 |
| COCCN(C)C12CCC(Cn3nc(C)c4c3CCN(c3cc(C)nc5c3cnn5C)C4)(CC1)CC2 [Compound No. 73, 4-((5-(1,6-dimethyl-1H-pyrazolo[3,4-b]pyridin-4-yl)-3-methyl-4,5,6,7-tetrahydro-1H-pyrazolo[4,3-c]pyridin-1-yl)methyl)-N-(2-methoxyethyl)-N-methylbicyclo[2.2.2]octan-1-amine] | 139 |
| Cc1cc(N2CCc3c(c(C)nn3CC34CCC(NCC(=O)N(C)C)(CC3)CC4)C2)c2cnn(C)c2n1 [Compound No. 76, 2-((4-((5-(1,6-dimethyl-1H-pyrazolo[3,4-b]pyridin-4-yl)-3-methyl-4,5,6,7-tetrahydro-1H-pyrazolo[4,3-c]pyridin-1-yl)methyl)bicyclo[2.2.2]octan-1-yl)amino)-N,N-dimethylacetamide] | 201 |
| Cc1nn(CC23CCC(N)(CC2)CC3)c2c1CN(c1nc(-c3ccc(F)cc3)nc3c1cnn3C)CC2 [Compound No. 83, 4-((5-(6-(4-fluorophenyl)-1-methyl-1H-pyrazolo[3,4-d]pyrimidin-4-yl)-3-methyl-4,5,6,7-tetrahydro-1H-pyrazolo[4,3-c]pyridin-1-yl)methyl)bicyclo[2.2.2]octan-1-amine] | 865 |
| Cc1cc(N2CCc3c(c(C)nn3CC34CCC(N)(CC3)CC4)C2)c2ccccc2n1 [compound 62, -((3-methyl-5-(2-methylquinolin-4-yl)-4,5,6,7-tetrahydro-1H-pyrazolo[4,3-c]pyridin-1-yl)methyl)bicyclo[2.2.2]octan-1-amine] | 699 |
| Cc1cc(N2Cc3cn(CC45CCC(N)(CC4)CC5)nc3C(C)(C)C2)c2cnn(C)c2n1 [compound 65, 4-((5-(1,6-dimethyl-1H-pyrazolo[3,4-b]pyridin-4-yl)-7,7-dimethyl-4,5,6,7-tetrahydro-2H-pyrazolo[4,3-c]pyridin-2-yl)methyl)bicyclo[2.2.2]octan-1-amine] | 2360 |
| Cc1cc(N2CCc3c(c(C)nn3CC34CCC(N5CCS(=O)(=O)CC5)(CC3)CC4)C2)c2cnn(C)c2n1 [compound 66, 4-(4-((5-(1,6-dimethyl-1H-pyrazolo[3,4-b]pyridin-4-yl)-3-methyl-4,5,6,7-tetrahydro-1H-pyrazolo[4,3-c]pyridin-1-yl)methyl)bicyclo[2.2.2]octan-1-yl)thiomorpholine 1,1-dioxide] | 1130 |
| Cc1cc(N2CCc3c(c(C)nn3CC34CCC(N5CC(O)C5)(CC3)CC4)C2)c2cnn(C)c2n1 [compound 68, 1-(4-((5-(1,6-dimethyl-1H-pyrazolo[3,4-b]pyridin-4-yl)-3-methyl-4,5,6,7-tetrahydro-1H-pyrazolo[4,3-c]pyridin-1-yl)methyl)bicyclo[2.2.]octan-1-yl)azetidin-3-ol] | 155 |
| Cc1cc(N2CCc3c(c(C)nn3CC34CCC(N(C)C(C)C)(CC3)CC4)C2)c2cnn(C)c2n1 [compound 78, 4-((5-(1,6-dimethyl-1H-pyrazolo[3,4-b]pyridin-4-yl)-3-methyl-4,5,6,7-tetrahydro-1H-pyrazolo[4,3-c]pyridin-1-yl)methyl)-N-isopropyl-N-methylbicyclo[2.2.2]octan-1-amine] | 474 |
| Cc1cc(N2CCc3c(c(C)nn3CC34CCC(N)(CC3)CO4)C2)c2cnn(C)c2n1 [compound 81, 1-((5-(1,6-dimethyl-1H-pyrazolo[3,4-b]pyridin-4-yl)-3-methyl-4,5,6,7-tetrahydro-1H-pyrazolo[4,3-c]pyridin-1-yl)methyl)-2-oxabicyclo[2.2.2]octan-4-amine] | 395 |
| Cc1cc(N2CCc3c(c(C)nn3CC34CCC(N5CCCC5)(CC3)CO4)C2)c2cnn(C)c2n1 [compound 82, 5-(1,6-dimethyl-1H-pyrazolo[3,4-b]pyridin-4-yl)-3-methyl-1-((4-(pyrrolidin-1-yl)-2-oxabicyclo[2.2.2]octan-1-yl)methyl)-4,5,6,7-tetrahydro-1H-pyrazolo[4,3-c]pyridine] | 486 |
| Cc1nn(CC23CCC(N)(CC2)CC3)c2c1CN(c1ccnc(-c3ccc(F)cc3)c1)CC2 [compound 87, 4-((5-(2-(4-fluorophenyl)pyridin-4-yl)-3-methyl-4,5,6,7-tetrahydro-1H-pyrazolo[4,3-c]pyridin-1-yl)methyl)bicyclo[2.2.2]octan-1-amine] | 1100 |
| Cc1ccc(-c2cc(N3CCc4c(c(C)nn4CC45CCC(N)(CC4)CC5)C3)ccn2)c(F)c1 [compound 88, 4-((5-(2-(2-fluoro-4-methylphenyl)pyridin-4-yl)-3-methyl-4,5,6,7-tetrahydro-1H-pyrazolo[4,3-c]pyridin-1-yl)methyl)bicyclo[2.2.2]octan-1-amine] | 715 |
